# pIC50: −log10 of the molar value.
# Target: T1, Recombinant autotaxin (Homo sapiens, UniProt Q13822)
# T1 construct: made in house; host or cells: Hi5 insect cells (baculovirus)
# Assay: Autotaxin assay (Amplex Red, LPC substrate)
# Assay type: biochemical
# Conditions: % of control at 1E−05 (compound concentration); uninhibited control = 100%
# Procedure: Autotaxin activity is measured indirectly by means of Amplex Red Reagent. In this course, Amplex Red is measured as fluorogenic indicator for generated H2O2. Autotaxin converts substrate lysophosphatidylcholine (LPC) to phosphocholine and lysophosphatidylic acid (LPA). After the conversion phosphocholine is reacted with alkaline phosphatase to obtain inorganic phosphate and choline. During the next step choline is oxidized with choline oxidase to yield betaine, whereby H2O2 is generated. H2O2 reacts with Amplex Red Reagent in the presence of peroxidase (Horseradish peroxidase) in an 1:1 stochiometry and yields highly fluorescent resorufin. The generated fluorescence is measured in a reaction-dependent kinetic mode in order to enable subtraction of fluorescence signals of possible other fluorescent compounds that are not part of the reaction from total measured fluorescence.
# 1.5 μl of a standard solution or of the compounds of the invention are dissolved in 20 mM Hepes pH 7.2 with maximally 7.7% DMSO in individual concentrations. The resulting solution is pre-incubated together with 10 μl (16 ng) of highly purified recombinant autotaxin in a black 384-hole microtiter plate for 30 min at 22° C.
# Thereafter, the reaction is started through the addition of 5 μL-a-lysophosphatidyl-choline (LPC), whereby the final concentration of LPC is 75 μM. The mixture is incubated for 90 min. at 37° C. After the incubation Amplex Red Reagent, peroxidase (Horseradish peroxidase) and choline oxidase are added. The fluorescence is immediately measured at a wavelength of 612 nm with an excitation wavelength of 485 nm in a “Tecan Ultra multimode” fluorescence reader. The activity of autotaxin is indirectly calculated via the amount of detected generated H2O2.
# For IC50 analysis, ten serial 1:3 dilutions starting at 30 μM for each compound were run in duplicates.
# IC50 values were calculated on normalized data. For normalization, control wells were added to each assay plate and the signal of uninhibited control wells was set to 100%, whereas the signal inhibited by 500 μM C14 LPA, (Avanti Polar Lipids, Cat#857120P) was set to 0%. Curves were fitted and IC50 values calculated by the following model using proprietory analysis software: Y=Bottom+(100−Bottom)/(1+10^((Log IC50−X)*HillSlope)) Where X is the logarithm of concentration. Y is the response; Y starts at Bottom and goes to Top with a sigmoid shape. Material
# Microtiter plate: PS-Microplate, 384-hole, small volume, black Corning, Cat#3677
# Protein: Recombinant autotaxin (baculoviral Hi5 expression)
# Substrate: L-a-lysophosphatidyl choline (chicken egg); Avanti Polar Lipids #830071P
# Standard: C14 LPA, Avanti Polar Lipids, Cat#857120P
# Detection Reagent: Amplex Red Reagent; Invitrogen #A12222; dissolved in 1.923 ml of DMSO peroxidase Type VI-A (horseradish), Sigma #P6782; dissolved in 7.45 ml of test buffer, Choline Oxidase; Sigma #C5896; dissolved in 2.47 ml test buffer
# Detection Reagent Mix: 1:100 dilution of Amplex Red Regent in test buffer
# Test buffer: 200 mM Tris-HCl, Merck, Cat #1.08219, pH 7.9; 0.1% BSA, lipid free, Roche Cat#775835
row,Compound,% CTRL (1E−05)
1,"O=C(Cc1ccc(C(F)(F)F)c(F)c1)N1CCN(C2CCN(C(=O)c3ccc4[nH]nnc4c3)CC2)CC1 [Compound 102, 1-{4-[1-(1H-Benzotriazole-5-carbonyl)-piperidin-4-yl]-piperazin-1-yl}-2-(3-fluoro-4-trifluoromethyl-phenyl)-ethanone]",24%

# Same assay, conditions: recombinant autotaxin, LPC substrate, Amplex Red detection; values given as upper bounds
row,Compound,pIC50
1,"O=C(OCc1ccc(C(F)(F)F)cc1)N1CCN(C2CCN(C(=O)c3ccc4[nH]c(=S)[nH]c4c3)CC2)CC1 [Compound 127, 4-[1-(2-Thioxo-2,3-dihydro-1H-benzoimidazole-5-carbonyl)-piperidin-4-yl]-piperazine-1-carboxylic acid 4-trifluoromethyl-benzyl ester]",> 5.00
2,"O=C(CCc1cc(Cl)cc(Cl)c1)N1CCN(C2CCN(C(=O)c3ccc4[nH]nnc4c3)CC2)CC1 [Compound 69, 1-{4-[1-(1H-Benzotriazole-5-carbonyl)-piperidin-4-yl]-piperazin-1-yl}-3-(3,5-dichloro-phenyl)-propan-1-one]",> 5.00
3,"O=C(Nc1ccc2[nH]nnc2c1)c1ccc(N2CCN(C(=O)OCc3ccc(C(F)(F)F)cc3)CC2)nc1 [Compound 111, 4-[5-(1H-Benzotriazol-5-ylcarbamoyl)-pyridin-2-yl]-piperazine-1-carboxylic acid 4-trifluoromethyl-benzyl ester]",> 5.00
4,"O=C(OCc1ccc(C(F)(F)F)cc1)N1CCC(NC2CCN(C(=O)c3ccc4[nH]nnc4c3)CC2)C1 (stereo not shown) [Compound 68, 3-[1-(1H-Benzotriazole-5-carbonyl)-piperidin-4-ylamino]-pyrrolidine-1-carboxylic acid 4-trifluoromethyl-benzyl ester]",> 5.00
5,"O=C(CCc1ccc(Cl)cc1F)N1CCN(C2CCN(C(=O)c3ccc4[nH]nnc4c3)CC2)CC1 [Compound 67, 1-{4-[1-(1H-Benzotriazole-5-carbonyl)-piperidin-4-yl]-piperazin-1-yl}-3-(4-chloro-2-fluoro-phenyl)-propan-1-one]",> 5.00
6,"COc1cc(COC(=O)N2CCN(C3CCN(C(=O)c4ccc5[nH]nnc5c4)CC3)CC2)cc(OC)c1OC [Compound 121, 4-[1-(1H-Benzotriazole-5-carbonyl)-piperidin-4-yl]-piperazine-1-carboxylic acid 3,4,5-trimethoxy-benzyl ester]",> 4.52
7,"Cc1oc(-c2ccccc2)cc1COC(=O)N1CCN(C2CCN(C(=O)c3ccc4[nH]nnc4c3)CC2)CC1 [Compound 173, 4-[1-(1H-Benzotriazole-5-carbonyl)-piperidin-4-yl]-piperazine-1-carboxylic acid 2-methyl-5-phenyl-furan-3-ylmethyl ester]",> 5.00
8,"O=C(NCCc1ccccn1)C1CC(=O)N(C2CCN(C(=O)OCc3cc(Cl)cc(Cl)c3)CC2)C1 (stereo not shown) [Compound 17, 4-[2-Oxo-4-(2-pyridin-2-yl-ethylcarbamoyl)-pyrrolidin-1-yl]-piperidine-1-carboxylic acid 3,5-dichloro-benzyl ester]",> 5.00
9,"CC(OC(=O)N1CCN(C2CCN(C(=O)c3ccc4[nH]nnc4c3)CC2)CC1)c1cc(C(F)(F)F)cc(C(F)(F)F)c1 (stereo not shown) [Compound 172, 4-[1-(1H-Benzotriazole-5-carbonyl)-piperidin-4-yl]-piperazine-1-carboxylic acid 1-(3,5-bis-trifluoromethyl-phenyl)-ethyl ester]",> 5.00
10,"O=C(OCc1ccc2c(c1)OCCO2)N1CCN(C2CCN(C(=O)c3ccc4[nH]nnc4c3)CC2)CC1 [Compound 137, 4-[1-(1H-Benzotriazole-5-carbonyl)-piperidin-4-yl]-piperazine-1-carboxylic acid 2,3-dihydro-benzo[1,4]dioxin-6-ylmethyl ester]",> 5.00
11,"O=C(OCc1ccc2c(c1)OCO2)N1CCN(C2CCN(C(=O)c3ccc4[nH]nnc4c3)CC2)CC1 [Compound 136, 4-[1-(1H-Benzotriazole-5-carbonyl)-piperidin-4-yl]-piperazine-1-carboxylic acid benzo[1,3]dioxol-5-ylmethyl ester]",> 5.00

# The remaining lines, values ahead:
row,pIC50,Compound
1,> 6.00,"O=C(OCc1cc(Cl)cc(Br)c1)N1CCN(C2CCN(C(=O)c3ccc4[nH]nnc4c3)CC2)CC1 [Compound 146, 4-[1-(1H-Benzotriazole-5-carbonyl)-piperidin-4-yl]-piperazine-1-carboxylic acid 3-bromo-5-chloro-benzyl ester]"
2,> 6.00,"O=C(OCc1ccc(C(F)(F)F)cc1)N1CCC(N2CCN(C(=O)c3ccc4[nH]nnc4c3)CC2)CC1 [Compound 71, 4-[4-(1H-Benzotriazole-5 carbonyl)-piperazin-1-yl]-piperidine-1-carboxylic acid 4-trifluoromethyl-benzyl ester]"
3,> 6.00,"O=C(OCc1ccc(Cl)cc1F)N1CCN(C2CCN(C(=O)c3ccc4[nH]c(=O)oc4c3)CC2)CC1 [Compound 65, 4-[1-(2-Oxo-2,3-dihydro-benzooxazole-6-carbonyl)-piperidin-4-yl]-piperazine-1-carboxylic acid 4-chloro-2-fluoro-benzyl ester]"
4,> 6.00,"O=C(OCc1ccc(C(F)(F)F)c(F)c1F)N1CCC(N2CCN(C(=O)c3ccc4[nH]nnc4c3)CC2)CC1 [Compound 113, 4-[1-(1H-Benzotriazole-5-carbonyl)-piperidin-4-yl]-piperazine-1-carboxylic acid 2,3-dilfuoro-4-trifluoromethyl-benzyl ester]"
5,> 6.00,"O=C(Nc1ccc2[nH]nnc2c1)C1CC(=O)N(C2CCN(C(=O)OCc3cc(Cl)cc(Cl)c3)CC2)C1 (stereo not shown) [Compound 4, 4-[4-(1H-Benzotriazol-5-ylcarbamoyl)-2-oxo-pyrrolidin-1-yl]-piperidine-1-carboxylic acid 3,5-dichloro-benzyl ester]"
6,> 6.00,"CC(C)c1ccc(COC(=O)N2CCC(N3CCN(C(=O)c4ccc5[nH]nnc5c4)CC3)CC2)cc1 [Compound 87, 4-[4-(1H-Benzotriazole-5-carbonyl)-piperazin-1-yl]-piperidine-1-carboxylic acid 4-isopropyl-benzyl ester]"
7,> 6.00,"O=C(OCc1cc(C(F)(F)F)cc(C(F)(F)F)c1)N1CCN(C2CCN(C(=O)c3ccc4[nH]nnc4c3)CC2)CC1 [Compound 35, 4-[1-(1H-Benzotriazole-5-carbonyl)-piperidin-4-yl]-piperazine-1-carboxylic acid 3,5-bis-trifluoromethyl-benzyl ester]"
8,> 6.00,"O=C(OCc1cc(-c2ccsc2)cs1)N1CCN(C2CCN(C(=O)c3ccc4[nH]nnc4c3)CC2)CC1 [Compound 135, 4-[1-(1H-Benzotriazole-5-carbonyl)-piperidin-4-yl]-piperazine-1-carboxylic acid [3,3′]bithiophenyl-5-ylmethyl ester]"
9,> 6.00,"O=C(Nc1ccc2[nH]nnc2c1)C1CC(=O)N(C2CCN(C(=O)OCc3ccc(Cl)cc3)CC2)C1 (stereo not shown) [Compound 2, 4-[4-(1H-Benzotriazol-5-ylcarbamoyl)-2-oxo-pyrrolidin-1-yl]-piperidine-1-carboxylic acid 4-chloro-benzyl ester]"
10,> 6.00,"O=C(OCc1cc(Cl)cc(C(F)(F)F)c1)N1CCN(C2CCN(C(=O)c3ccc4[nH]nnc4c3)CC2)CC1 [Compound 95, 4-[1-(1H-Benzotriazole-5-carbonyl)-piperidin-4-yl]-piperazine-1-carboxylic acid 3-chloro-5-trifluoromethyl-benzyl ester]"
11,> 6.00,"O=C(OCc1cccc(Cl)c1)N1CCN(C2CCN(C(=O)c3ccc4[nH]nnc4c3)CC2)CC1 [Compound 41, 4-[1-(1H-Benzotriazole-5-carbonyl)-piperidin-4-yl]-piperazine-1-carboxylic acid 3-chloro-benzyl ester]"
12,> 6.00,"O=C(OCc1ccc(Cl)c(Cl)c1)N1CCN(C2CCN(C(=O)c3ccc4[nH]nnc4c3)CC2)CC1 [Compound 45, 4-[1-(1H-Benzotriazole-5-carbonyl)-piperidin-4-yl]-piperazine-1-carboxylic acid 3,4-dichloro-benzyl ester]"
13,> 6.00,"Cc1ccc(-c2ccccc2C(=O)N2CCC(C3CCN(C(=O)c4ccc5[nH]nnc5c4)CC3)CC2)cc1 [Compound 11, [1′-(1H-Benzotriazole-5-carbonyl)-[4,4′]bipiperidinyl-1-yl]-(4′-methyl-biphenyl-2-yl)-methanone]"

# Source: US9452997B2, “Piperidine and piperazine derivatives as autotaxin inhibitors” (Merck Patent GmbH, priority 2009, dated 2016)
